In patent US7511133B2, “Adenosine A3 receptor agonists” (King Pharmaceuticals Research and Development, Inc., priority 2003, dated 2009):
Like-named read-outs stand apart in the source and are kept apart here.

Legend:
human hA2B receptors = biological target: T1, human hA2B receptors (Homo sapiens, UniProt P29275); assay: [^3H] DPCPX binding to human hA2B receptors expressed in HEK293 cells (antagonist radioligand)
T1 construct: host or cells: HEK 293 cells
T1 sequence (P29275 1-332): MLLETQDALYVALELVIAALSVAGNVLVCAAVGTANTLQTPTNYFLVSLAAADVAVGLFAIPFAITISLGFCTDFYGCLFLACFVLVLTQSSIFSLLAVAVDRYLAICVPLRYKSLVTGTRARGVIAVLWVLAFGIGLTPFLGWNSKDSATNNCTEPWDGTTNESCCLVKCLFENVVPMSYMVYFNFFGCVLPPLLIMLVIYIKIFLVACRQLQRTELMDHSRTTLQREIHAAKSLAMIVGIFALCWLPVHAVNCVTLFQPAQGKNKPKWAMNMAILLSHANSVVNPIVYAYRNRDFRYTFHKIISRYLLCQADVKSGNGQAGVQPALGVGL
Description: (§1) Binding assay methodology for the human data with antagonist radioligands. […] Arch. Pharmacol. 357: 1-9, (1998). The cells were grown adherently and maintained in Dulbecco's Modified Eagles Medium with nutrient mixture F12 (DMEM/F12) without nucleosides, containing 10% fetal calf serum, penicillin (100 U/ml), streptomycin (100 μg/ml), L-glutamine (2 mM) and Geneticin (G418, 0.2 mg/ml) at 37° C. in 5% CO2/95% air. Cells were split 2 or 3 times weekly at a ratio between 1:5 and 1:20. For membrane preparation the culture medium was removed and the cells were washed with PBS and scraped off T75 flasks in ice-cold hypotonic buffer (5 mM Tris HCl, 2 mM EDTA, pH 7.4). The cell suspension was homogenized with Polytron and the homogenate was spun for 10 min at 1,000×g. The supernatant was then centrifuged for 30 min at 100,000×g. The membrane pellet was resuspended in 50 mM Tris HCl buffer pH 7.4 (for A3 adenosine receptors: 50 mM Tris HCl, 10 mM MgCl2, 1 mM EDTA) and incubated with 3 UI/ml of Adenosine deaminase for 30 min at 37° C. Then the suspension was frozen at −80° C. HEK 293 cells transfected with the human recombinant A2B adenosine receptor were obtained from Receptor Biology, Inc. (Beltsville, Md., USA).
Competition experiments of [^3H]-DPCPX to HEK-293 cells transfected with the human recombinant A^2B adenosine receptor were performed for 60 min at 25° C. in 0.1 ml of 50 mM Tris HCl buffer, 10 mM MgCl2, 1 mM EDTA, 0.1 mM benzamidine pH 7.4, 2 IU/ml adenosine deaminase containing 34 nM [^3H]-DPCPX, diluted membranes (20 μg of protein/assay) and at least 6-8 different concentrations of selected compounds.

human A2A receptors = biological target: T2, human A2A receptors (Homo sapiens, UniProt P29274); assay: [^3H] SCH58261 binding to human A2A receptors expressed in CHO cells (antagonist radioligand)
T2 construct: expressed in transfected cells; host or cells: CHO cells
T2 sequence (P29274 whole entry): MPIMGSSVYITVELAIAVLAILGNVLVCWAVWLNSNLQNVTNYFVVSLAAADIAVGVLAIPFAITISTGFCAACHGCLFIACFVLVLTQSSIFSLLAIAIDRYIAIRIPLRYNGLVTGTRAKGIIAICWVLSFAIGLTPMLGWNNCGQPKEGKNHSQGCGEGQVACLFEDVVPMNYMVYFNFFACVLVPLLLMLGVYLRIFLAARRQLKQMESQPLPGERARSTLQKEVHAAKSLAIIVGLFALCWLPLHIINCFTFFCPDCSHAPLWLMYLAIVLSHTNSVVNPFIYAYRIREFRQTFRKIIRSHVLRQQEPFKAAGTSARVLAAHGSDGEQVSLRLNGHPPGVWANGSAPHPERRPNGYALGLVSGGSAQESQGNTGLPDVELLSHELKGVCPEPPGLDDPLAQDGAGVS
Description: as §1
Binding of [^3H]-SCH 58261 to CHO cells transfected with the human recombinant A2A adenosine receptors (50 μg of protein/assay) was performed using 0.2 ml 50 mM Tris HCl buffer, 10 mM MgCl2 pH 7.4 and at least 6-8 different concentrations of antagonists studied for an incubation time of 30 min at 25° C.

[1] = biological target: T3, human A2A adenosine receptors (Homo sapiens, UniProt P29274); assay: Displacement of [^3H]CGS21680 binding, human A2A adenosine receptors in CHO cells (agonist radioligand)
T3 construct: expressed in transfected cells; host or cells: CHO cells
T3 sequence (P29274 whole entry): as above

human A1 receptors = biological target: T4, human A1 receptors (Homo sapiens, UniProt P30542); assay: [^3H] DPCPX binding to human A1 receptors expressed in CHO cells (antagonist radioligand)
T4 construct: expressed in transfected cells; host or cells: CHO cells
T4 sequence (P30542 1-326): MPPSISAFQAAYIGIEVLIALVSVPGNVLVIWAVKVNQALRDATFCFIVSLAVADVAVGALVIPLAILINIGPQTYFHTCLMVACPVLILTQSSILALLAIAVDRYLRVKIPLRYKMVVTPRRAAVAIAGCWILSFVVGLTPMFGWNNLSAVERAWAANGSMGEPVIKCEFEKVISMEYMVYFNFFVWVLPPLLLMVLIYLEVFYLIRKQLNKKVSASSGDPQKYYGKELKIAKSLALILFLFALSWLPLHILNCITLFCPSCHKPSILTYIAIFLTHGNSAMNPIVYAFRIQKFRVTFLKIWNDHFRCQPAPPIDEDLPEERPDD
Description: as §1, with “Pharmacol. 357: 1-9, (1998).” left out
Displacement experiments were performed for 120 min at 25° C. in 0.2 ml of 50 mM Tris HCl buffer pH 7.4 containing 1 nM [3H]-DPCPX, diluted membranes (50 μg of protein/assay) and at least 6-8 different concentrations of antagonists studied. Non-specific binding was determined in the presence of 10 μM of CHA and this was always ≦10% of the total binding.

[2] = biological target: T5, human A3 adenosine receptors (Homo sapiens, UniProt P0DMS8)
T5 sequence (P0DMS8 1-318): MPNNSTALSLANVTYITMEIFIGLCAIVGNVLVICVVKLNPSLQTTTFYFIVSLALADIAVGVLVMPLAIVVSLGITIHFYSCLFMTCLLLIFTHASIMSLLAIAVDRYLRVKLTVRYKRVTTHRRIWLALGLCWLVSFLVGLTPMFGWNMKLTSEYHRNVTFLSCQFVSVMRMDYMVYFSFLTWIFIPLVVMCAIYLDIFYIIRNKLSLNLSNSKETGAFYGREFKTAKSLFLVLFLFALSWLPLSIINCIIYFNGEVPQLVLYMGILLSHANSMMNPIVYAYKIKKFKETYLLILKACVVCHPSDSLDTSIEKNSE

[3] = biological target: T6, human A1 adenosine receptors (Homo sapiens, UniProt P30542); assay: Displacement of [^3H]CHA binding, human A1 adenosine receptors in CHO cells (agonist radioligand)
T6 sequence (P30542 1-326): T4 sequence (P30542 1-326)

human A3 receptors = biological target: T7, human A3 receptors (Homo sapiens, UniProt P0DMS8); assay: [^3H] MRE3008F20 binding to human A3 receptors expressed in CHO cells (antagonist radioligand)
T7 construct: expressed in transfected cells; host or cells: CHO cells
T7 sequence (P0DMS8 1-318): T5 sequence (P0DMS8 1-318)
Description: as §1
Binding of [^3H]-MRE 3008F20 to CHO cells transfected with the human recombinant A3 adenosine receptors was performed according to Varani et al., 2000. Competition experiments were carried out in duplicate in a final volume of […] in test tubes containing 1 nM [^3H]-MRE 3008F20, 50 mM Tris HCl buffer, 10 mM MgCl2, 1 mM EDTA pH 7.4 and 100 μl of diluted membranes (50 μg of protein/assay) and at least 8-10 different concentrations of examined antagonists. Incubation time was 120 min at 4° C., according to the results of previous time-course experiments.

[4] = human A2B, HEK293 cells, antagonist radioligand, read-out: [^3H] DPCPX binding to human hA2B receptors expressed in HEK293 cells Ki
[5] = human A2A, CHO cells, antagonist radioligand, read-out: [^3H] SCH58261 binding to human A2A receptors expressed in CHO cells Ki
[6] = human A2A, CHO cells, [^3H]CGS21680, read-out: Ki(A2A). Displacement of [^3H]CGS21680 binding to human A2A adenosine receptors exp. in CHO cells.
[7] = human A1, CHO cells, antagonist radioligand, read-out: [^3H] DPCPX binding to human A1 receptors expressed in CHO cells Ki
[8] = human A3, CHO cells, antagonist radioligand, read-out: [^3H] MRE3008F20 binding to human A3 receptors expressed in CHO cells Ki

For `CCNC(=O)[C@H]1O[C@@H](n2cnc3c(NC(=O)Nc4ccc(S(=O)(=O)N5CCCCC5)cc4)ncnc32)[C@H](O)[C@@H]1O` [Compound 83, 1-Deoxy-1-[6-[[[[4-[(piperidin-1-yl)sulfonyl]phenyl]amino]carbonyl]amino]-9H-purin-9-yl]-N-ethyl-β-D-ribofuranuronamide], the Ki (human hA2B receptors; [4]) was greater than 1 µM, the Ki (human A2A receptors; [5]) was greater than 1 µM and the Ki [1, 6] was greater than 1 µM. It also gave a melting point of 176 to 178 °C.

Molecule `CCNC(=O)[C@H]1O[C@@H](n2cnc3c(NC(=O)Nc4ccc(S(=O)(=O)N5CCOCC5)cc4)ncnc32)C(O)C1O` (stereo partly drawn) [Compound 84, 1-Deoxy-1-[6-[[[[4-[(morpholine-1-yl)sulfonyl]phenyl]amino]carbonyl]amino]-9H-purin-9-yl]-N-ethyl-β-D-ribofuranuronamide] has a Ki (human hA2B receptors; [4]) greater than 1 µM, a Ki (human A1 receptors; [7]) greater than 1 µM and a Ki [2] of 0.02 µM. For the same molecule, the A1/A3 ([2]; ratio Ki(A1)/Ki(A3), agonist radioligands) was 36.25, the Ki [3] was 0.725 µM and the Ki (human A2A receptors; [5]) was greater than 1 µM. For the same molecule, the Ki [1, 6] was greater than 1 µM, the Ki (human A3 receptors; [8]) was 0.198 µM and the melting point was 204 to 205 °C.

`CCNC(=O)[C@H]1O[C@@H](n2cnc3c(NC(=O)Nc4ccc(S(=O)(=O)NCc5ccccc5)cc4)ncnc32)[C@H](O)[C@@H]1O` [Compound 86, 1-Deoxy-1-[6-[[[[4-[N-(benzyl)aminosulfonyl]phenyl]amino]-carbonyl]amino]-9H-purin-9-yl]-N-ethyl-β-D-ribofuranuronamide] showed a Ki (human hA2B receptors; [4]) greater than 1 µM, a Ki (human A1 receptors; [7]) greater than 1 µM and a Ki [3] of 0.3 µM. For the same molecule, the Ki (human A2A receptors; [5]) was greater than 1 µM and the Ki [1, 6] was greater than 1 µM.

`CCNC(=O)[C@H]1O[C@@H](n2cnc3c(NC(=O)Nc4ccc(S(=O)(=O)Nc5ccc(OC)cc5)cc4)ncnc32)[C@H](O)[C@@H]1O` [Compound 88, 1-Deoxy-1-[6-[[[[4-[N-(4-methoxyphenyl)aminosulfonyl]phenyl]-amino]carbo-nyl]amino]-9H-purin-9-yl]-N-ethyl-β-D-ribofuranuronamide] showed a Ki (human hA2B receptors; [4]) greater than 1 µM, a Ki (human A1 receptors; [7]) greater than 1 µM and a Ki [3] of 0.28 µM. The Ki (human A2A receptors; [5]) was greater than 1 µM and the Ki [1, 6] was greater than 1 µM.

`CCNC(=O)[C@H]1O[C@@H](n2cnc3c(NC(=O)Nc4ccc(S(=O)(=O)N5CCCC5)cc4)ncnc32)[C@H](O)[C@@H]1O` [Compound 90, 1-Deoxy-1-[6-[[[[4-[(pyrrolidin-1-yl)sulfonyl]phenyl]amino]carbonyl]amino]-9H-purin-9-yl]-N-ethyl-β-D-ribofuranuronamide] gave a Ki (human hA2B receptors; [4]) greater than 1 µM, a Ki [2] of 0.022 µM and a Ki (human A2A receptors; [5]) greater than 1 µM. It also gave a Ki [1, 6] greater than 1 µM, a Ki (human A3 receptors; [8]) of 0.1 µM and a melting point of 204 to 205 °C.

For `CCNC(=O)[C@H]1O[C@@H](n2cnc3c(NC(=O)Nc4ccc(S(=O)(=O)N(CCCl)CCCl)cc4)ncnc32)[C@H](O)[C@@H]1O` [Compound 91, 1-Deoxy-1-[6-[[[[4-[N,N-bis(2-chloroethyl)aminosulfonyl]phenyl]-amino]carbonyl]amino]-9H-purin-9-yl]-N-ethyl-β-D-ribofuranuronamide], the Ki (human hA2B receptors) was greater than 1 µM, the Ki (human A1 receptors) was greater than 1 µM and the Ki [2] was 0.023 µM. For the same molecule, the Ki [3] was 0.73 µM, the Ki (human A2A receptors) was greater than 1 µM and the Ki [1] was greater than 1 µM. It also gave a Ki (human A3 receptors) of 0.12 µM.

For `CCNC(=O)[C@H]1O[C@@H](n2cnc3c(NC(=O)Nc4ccc(S(=O)(=O)NC5CCCCC5)cc4)ncnc32)[C@H](O)[C@@H]1O` [Compound 94, 1-Deoxy-1-[6-[[[[4-[N-(cyclohexyl)aminosulfonyl]phenyl]-amino]carbonyl]amino]-9H-purin-9-yl]-N-ethyl-β-D-ribofuranuronamide], the Ki (human hA2B receptors; [4]) was greater than 1 µM, the Ki (human A1 receptors; [7]) was greater than 1 µM and the Ki [3] was 0.35 µM. For the same molecule, the Ki (human A2A receptors; [5]) was greater than 1 µM, the Ki [1, 6] was greater than 1 µM and the melting point was 179 to 183 °C.

Molecule `CCNC(=O)[C@H]1O[C@@H](n2cnc3c(NC(=O)Nc4ccc(S(=O)(=O)NC5CCCC5)cc4)ncnc32)[C@H](O)[C@@H]1O` [Compound 95, 1-Deoxy-1-[6-[[[[4-[N-(cyclopentyl)aminosulfonyl]phenyl]-amino]carbonyl]amino]-9H-purin-9-yl]-N-ethyl-β-D-ribofuranuronamide] has a Ki (human hA2B receptors; [4]) greater than 1 µM, a Ki (human A1 receptors; [7]) greater than 1 µM and a Ki [2] of 0.024 µM. The Ki [3] was 0.415 µM, the Ki (human A2A receptors; [5]) was greater than 1 µM and the Ki [1, 6] was greater than 1 µM. For the same molecule, the Ki (human A3 receptors; [8]) was 0.14 µM.

With `C=CCN(C)S(=O)(=O)c1ccc(NC(=O)Nc2ncnc3c2ncn3[C@@H]2O[C@H](C(=O)NCC)[C@@H](O)[C@H]2O)cc1` [Compound 96, 1-Deoxy-1-[6-[[[[4-[N-(allyl)-N-(methyl)amino-sulfonyl]phenyl]amino]carbonyl]amino]-9H-purin-9-yl]-N-ethyl-β-D-ribofuranuronamide] the Ki (human hA2B receptors; [4]) was greater than 1 µM, the Ki [2] was 0.01 µM and the Ki (human A2A receptors; [5]) was greater than 1 µM. For the same molecule, the Ki [1, 6] was greater than 1 µM, the Ki (human A3 receptors; [8]) was 0.05 µM and the melting point was 181 to 185 °C.
